Reference: ChEMBL document CHEMBL2380296, “Structure-based design and optimization of 2-aminothiazole-4-carboxamide as a new class of CHK1 inhibitors” (Bioorg Med Chem Lett, 2013)

Columns and labels:
[1] = Plasma concentration in rat at 10 mg/kg, po measured at 24 hrs; format: ADME, organism-based; set-up: dose 10 mg/kg, route oral
hERG (KCNH2) [2] = molecular target: T1, hERG (KCNH2) (Homo sapiens, UniProt Q12809); test: Inhibition of human ERG at 1 uM after 5 mins by voltage clamp assay relative to control
T1 sequence (Q12809 whole entry): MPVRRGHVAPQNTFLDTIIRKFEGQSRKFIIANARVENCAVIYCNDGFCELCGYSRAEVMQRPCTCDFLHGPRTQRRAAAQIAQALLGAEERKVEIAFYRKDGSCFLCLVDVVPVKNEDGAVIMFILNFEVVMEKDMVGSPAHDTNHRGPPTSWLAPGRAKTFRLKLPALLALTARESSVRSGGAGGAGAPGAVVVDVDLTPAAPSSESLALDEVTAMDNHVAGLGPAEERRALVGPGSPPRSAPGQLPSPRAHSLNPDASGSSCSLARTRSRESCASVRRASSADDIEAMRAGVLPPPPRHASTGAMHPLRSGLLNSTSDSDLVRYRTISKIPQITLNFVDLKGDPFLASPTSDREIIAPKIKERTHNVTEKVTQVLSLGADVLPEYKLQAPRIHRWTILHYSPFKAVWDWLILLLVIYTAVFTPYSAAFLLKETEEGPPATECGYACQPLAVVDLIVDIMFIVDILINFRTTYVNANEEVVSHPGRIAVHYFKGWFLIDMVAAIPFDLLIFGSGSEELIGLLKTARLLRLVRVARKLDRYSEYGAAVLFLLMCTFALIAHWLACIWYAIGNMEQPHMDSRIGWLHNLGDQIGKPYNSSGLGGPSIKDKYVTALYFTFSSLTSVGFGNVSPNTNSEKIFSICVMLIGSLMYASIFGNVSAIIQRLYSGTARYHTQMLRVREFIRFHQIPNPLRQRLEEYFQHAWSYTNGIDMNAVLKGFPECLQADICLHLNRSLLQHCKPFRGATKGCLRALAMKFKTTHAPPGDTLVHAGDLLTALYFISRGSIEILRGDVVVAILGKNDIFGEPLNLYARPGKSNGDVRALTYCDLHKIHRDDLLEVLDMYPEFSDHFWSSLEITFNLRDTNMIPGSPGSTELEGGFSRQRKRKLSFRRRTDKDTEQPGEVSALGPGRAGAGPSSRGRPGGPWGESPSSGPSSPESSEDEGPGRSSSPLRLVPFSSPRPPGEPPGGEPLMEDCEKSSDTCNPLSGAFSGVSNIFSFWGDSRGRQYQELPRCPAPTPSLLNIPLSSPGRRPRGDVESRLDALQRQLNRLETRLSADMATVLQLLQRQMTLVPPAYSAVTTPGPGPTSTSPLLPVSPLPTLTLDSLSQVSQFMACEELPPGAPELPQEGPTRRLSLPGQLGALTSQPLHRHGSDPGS

hERG (KCNH2) [3] = molecular target: T1, hERG (KCNH2); test: Inhibition of human ERG expressed in mouse L929 cells at 10 uM by IonWorks assay relative to control; format: cell-based; conditions: mouse L929 cells expressing human ERG
Cytochrome P450 2C9 = Cytochrome P450 2C9 (Homo sapiens, UniProt P11712); test: Time-dependent inhibition of CYP2C9 in human liver microsomes using tolbutamide as substrate incubated for 30 mins prior to substrate addition measured after 30 mins by LC-MS/MS analysis; format: ADME, Microsome
[4] = Cmax in rat at 10 mg/kg, po; format: ADME, organism-based; set-up: dose 10 mg/kg, route oral; conditions: in vivo
[5] = molecular target: Muscarinic acetylcholine receptor M5 (Homo sapiens) (UniProt P08912); test: Inhibition of muscarinic M5 receptor (unknown origin) at 2 ug/mL relative to control
Sequence of Muscarinic acetylcholine receptor M5 (Homo sapiens) (P08912 whole entry): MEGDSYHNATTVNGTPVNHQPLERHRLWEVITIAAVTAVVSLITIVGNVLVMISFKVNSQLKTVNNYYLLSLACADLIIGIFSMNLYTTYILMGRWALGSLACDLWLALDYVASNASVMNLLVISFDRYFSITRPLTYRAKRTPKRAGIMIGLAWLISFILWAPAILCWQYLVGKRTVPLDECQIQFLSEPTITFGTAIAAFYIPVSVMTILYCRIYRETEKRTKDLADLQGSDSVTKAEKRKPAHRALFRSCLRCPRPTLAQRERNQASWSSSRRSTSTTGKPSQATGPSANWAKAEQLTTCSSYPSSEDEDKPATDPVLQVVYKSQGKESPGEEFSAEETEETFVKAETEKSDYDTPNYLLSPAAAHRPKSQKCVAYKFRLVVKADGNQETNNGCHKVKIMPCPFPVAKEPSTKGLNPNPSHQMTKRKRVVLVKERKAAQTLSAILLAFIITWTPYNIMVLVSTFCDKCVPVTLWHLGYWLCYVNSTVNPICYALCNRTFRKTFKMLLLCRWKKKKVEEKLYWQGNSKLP

[6] = molecular target: Muscarinic acetylcholine receptor M4 (Homo sapiens) (UniProt P08173); test: Inhibition of muscarinic M4 receptor (unknown origin) at 2 ug/mL relative to control
[7] = molecular target: Muscarinic acetylcholine receptor M3 (Homo sapiens) (UniProt P20309); test: Inhibition of muscarinic M3 receptor (unknown origin) at 2 ug/mL relative to control
Sequence of Muscarinic acetylcholine receptor M3 (Homo sapiens) (P20309 whole entry, looked up): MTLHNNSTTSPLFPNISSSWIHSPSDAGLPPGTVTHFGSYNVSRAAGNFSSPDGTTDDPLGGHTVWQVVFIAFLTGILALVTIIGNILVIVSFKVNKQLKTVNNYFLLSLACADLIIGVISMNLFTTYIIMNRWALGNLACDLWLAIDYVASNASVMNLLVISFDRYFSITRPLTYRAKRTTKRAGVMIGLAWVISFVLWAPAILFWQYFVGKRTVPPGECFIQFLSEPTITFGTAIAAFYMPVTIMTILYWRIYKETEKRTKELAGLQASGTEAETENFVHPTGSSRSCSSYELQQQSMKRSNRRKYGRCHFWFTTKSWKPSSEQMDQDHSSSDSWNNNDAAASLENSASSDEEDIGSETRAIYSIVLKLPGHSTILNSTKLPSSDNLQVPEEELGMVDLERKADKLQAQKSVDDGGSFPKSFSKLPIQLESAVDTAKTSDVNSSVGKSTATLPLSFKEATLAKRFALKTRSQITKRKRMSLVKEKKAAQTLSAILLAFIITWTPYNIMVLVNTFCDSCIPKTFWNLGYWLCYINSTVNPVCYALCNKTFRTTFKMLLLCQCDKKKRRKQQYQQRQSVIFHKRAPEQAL

[8] = molecular target: Muscarinic acetylcholine receptor M2 (Homo sapiens) (UniProt P08172); test: Inhibition of muscarinic M2 receptor (unknown origin) at 2 ug/mL relative to control
[9] = Plasma concentration in rat at 10 mg/kg, po measured at 2 hrs; format: ADME, organism-based; set-up: dose 10 mg/kg, route oral
[10] = molecular target: Cannabinoid receptor 2 (Homo sapiens) (UniProt P34972); test: Inhibition of CB2 receptor (unknown origin) at 20 ug/mL relative to control
Sequence of Cannabinoid receptor 2 (Homo sapiens) (P34972 whole entry): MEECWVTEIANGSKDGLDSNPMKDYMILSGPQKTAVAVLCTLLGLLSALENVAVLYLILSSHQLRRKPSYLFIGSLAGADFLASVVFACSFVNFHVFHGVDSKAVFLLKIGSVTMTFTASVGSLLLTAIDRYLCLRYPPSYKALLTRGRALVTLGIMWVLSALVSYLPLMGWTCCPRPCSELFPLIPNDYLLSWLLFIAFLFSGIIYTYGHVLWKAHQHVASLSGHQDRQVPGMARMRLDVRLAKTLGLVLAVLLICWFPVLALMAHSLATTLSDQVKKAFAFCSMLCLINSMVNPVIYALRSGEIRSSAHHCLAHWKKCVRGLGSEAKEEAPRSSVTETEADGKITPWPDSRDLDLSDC

[11] = molecular target: Alpha-1B adrenergic receptor (Homo sapiens) (UniProt P35368); test: Inhibition of adrenergic alpha-1B receptor (unknown origin) at 1 ug/mL relative to control
[12] = molecular target: Protein kinase C alpha type (Homo sapiens, UniProt P17252); test: Inhibition of human PKCA
[13] = molecular target: Tyrosine-protein kinase Lck (Homo sapiens, UniProt P06239); test: Inhibition of human LCK
[14] = molecular target: Inhibitor of nuclear factor kappa-B kinase subunit beta (Homo sapiens, UniProt O14920); test: Inhibition of human IKKB
[15] = molecular target: Interleukin-1 receptor-associated kinase 4 (Homo sapiens, UniProt Q9NWZ3); test: Inhibition of human IRAK4
[16] = molecular target: Insulin-like growth factor 1 receptor (Homo sapiens, UniProt P08069); test: Inhibition of human IGF1R
Sequence of Insulin-like growth factor 1 receptor (P08069 31-736 limits assumed): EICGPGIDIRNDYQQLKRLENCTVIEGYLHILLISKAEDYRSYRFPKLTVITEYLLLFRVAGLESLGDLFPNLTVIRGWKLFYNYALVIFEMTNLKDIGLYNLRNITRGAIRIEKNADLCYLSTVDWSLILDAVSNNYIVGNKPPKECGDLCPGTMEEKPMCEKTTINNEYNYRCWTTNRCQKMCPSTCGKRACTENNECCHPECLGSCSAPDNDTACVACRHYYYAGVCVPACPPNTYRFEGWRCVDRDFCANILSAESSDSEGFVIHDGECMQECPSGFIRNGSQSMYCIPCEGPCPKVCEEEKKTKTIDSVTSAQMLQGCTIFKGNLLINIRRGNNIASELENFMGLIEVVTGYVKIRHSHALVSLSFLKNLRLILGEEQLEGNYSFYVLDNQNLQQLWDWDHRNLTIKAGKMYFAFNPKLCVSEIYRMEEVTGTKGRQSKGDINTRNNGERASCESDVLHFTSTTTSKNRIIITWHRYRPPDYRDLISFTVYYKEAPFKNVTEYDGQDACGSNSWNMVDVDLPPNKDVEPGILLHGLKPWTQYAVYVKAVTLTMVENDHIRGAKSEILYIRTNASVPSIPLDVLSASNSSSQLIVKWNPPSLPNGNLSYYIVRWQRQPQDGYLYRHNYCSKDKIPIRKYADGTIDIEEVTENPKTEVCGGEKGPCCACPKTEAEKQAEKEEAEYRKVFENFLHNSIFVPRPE
Sequence of Insulin-like growth factor 1 receptor (P08069 741-1367 limits assumed): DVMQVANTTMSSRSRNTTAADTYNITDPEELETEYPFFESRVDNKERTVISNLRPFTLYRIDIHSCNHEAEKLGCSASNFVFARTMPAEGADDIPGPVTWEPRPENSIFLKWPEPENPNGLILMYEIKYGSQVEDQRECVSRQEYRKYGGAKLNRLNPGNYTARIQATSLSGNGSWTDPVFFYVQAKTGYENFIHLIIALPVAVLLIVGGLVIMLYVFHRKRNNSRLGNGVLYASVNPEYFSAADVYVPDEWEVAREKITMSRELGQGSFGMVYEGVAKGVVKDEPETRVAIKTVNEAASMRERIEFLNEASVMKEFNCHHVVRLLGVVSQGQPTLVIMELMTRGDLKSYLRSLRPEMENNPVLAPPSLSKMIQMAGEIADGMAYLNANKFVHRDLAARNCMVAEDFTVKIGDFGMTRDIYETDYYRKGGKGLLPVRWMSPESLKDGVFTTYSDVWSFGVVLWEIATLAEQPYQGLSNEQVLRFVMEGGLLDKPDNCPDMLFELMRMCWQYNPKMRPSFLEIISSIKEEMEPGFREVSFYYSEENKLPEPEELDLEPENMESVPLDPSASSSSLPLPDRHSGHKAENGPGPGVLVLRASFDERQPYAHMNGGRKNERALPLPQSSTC

With `COc1ccc2c(c1)C(=O)N(c1nc(C(=O)Nc3cnccc3N3CCNCC3)cs1)C2` the concentration at 24 h [1] was 6.29 ng/mL, the inhibition at 5 min, 1 µM (hERG (KCNH2) [2]) was 82% and the inhibition at 10 µM (hERG (KCNH2) [3]) was 42%. It also gave an IC50 (Cytochrome P450 2C9) greater than 30 µM, a Cmax [4] of 600 nM and an inhibition [5] of 14.4%. It also gave an inhibition [6] of 14.1%, an inhibition [7] of 10.1% and an inhibition [8] of 3.5%. It also gave a concentration at 2 h [9] of 150 ng/mL, an inhibition [10] of 25.1% and an inhibition [11] of 21.8%. The IC50 [12] was greater than 30 µM, the IC50 [13] was greater than 30 µM and the IC50 [14] was greater than 30 µM. It also gave an IC50 [15] of 1.1 µM and an IC50 [16] of 30 µM.
